Measured values published in PubChem BioAssay (NCI).
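Briefly, cells in 96-well plates were exposed to five compound concentrations for 48 h, and endpoints were estimated by linear interpolation. At the TGI there is no net growth.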

Legend:
Experiment in all cases: DTP human tumour cell line panel, 48 h
[1] = system: 786-0 renal
[2] = system: A498 renal
[3] = system: ACHN renal
[4] = system: BT-549 breast
[5] = system: CAKI-1 renal
[6] = system: COLO 205 colon
[7] = system: DU-145 prostate
[8] = system: EKVX NSCLC
[9] = system: HCT-116 colon
[10] = system: HL-60(TB) leukemia
[11] = system: HOP-62 NSCLC
[12] = system: HS 578T breast
[13] = system: HT29 colon
[14] = system: IGROV1 ovarian
[15] = system: K-562 leukemia
[16] = system: KM12 colon
[17] = system: LOX IMVI melanoma
[18] = system: MALME-3M melanoma
[19] = system: MCF7 breast
[20] = system: MDA-MB-231 breast
[21] = system: MDA-MB-435
[22] = system: MDA-N
[23] = system: MOLT-4 leukemia
[24] = system: NCI-H226 lung
[25] = system: NCI-H23 lung
[26] = system: NCI-H522 lung
[27] = system: NCI/ADR-RES ovarian
[28] = system: OVCAR-3 ovarian
[29] = system: OVCAR-4 ovarian
[30] = system: OVCAR-5 ovarian
[31] = system: OVCAR-8 ovarian
[32] = system: PC-3 prostate
[33] = system: RPMI-8226 leukemia
[34] = system: RXF 393 renal
[35] = system: SF-268 CNS
[36] = system: SF-295 CNS
[37] = system: SF-539 CNS
[38] = system: SK-MEL-2 melanoma
[39] = system: SK-MEL-28 melanoma
[40] = system: SK-MEL-5 melanoma
[41] = system: SN12C renal
[42] = system: SNB-19 CNS
[43] = system: SNB-75 CNS
[44] = system: SR leukemia
[45] = system: SW-620 colon
[46] = system: TK-10 renal
[47] = system: U251 CNS
[48] = system: UACC-257 melanoma
[49] = system: UACC-62 melanoma
[50] = system: UO-31 renal
[51] = system: A549 NSCLC
[52] = system: CCRF-CEM leukemia
[53] = system: HCC-2998 colon
[54] = system: HCT-15 colon
[55] = system: HOP-92 NSCLC
[56] = system: M14 melanoma
[57] = system: NCI-H460 lung
[58] = system: T-47D breast
[59] = system: SK-OV-3 ovarian

## N/N=C1/C2CN3CCN(C2)CC1(c1ccc([N+](=O)[O-])cc1)C3
[1]
  TGI: > 100 µM
[2]
  TGI: > 100 µM
[3]
  TGI: > 100 µM
[4]
  TGI: > 100 µM
[5]
  TGI: > 100 µM
[6]
  TGI: > 100 µM
[7]
  TGI: > 100 µM
[8]
  TGI: > 100 µM
[9]
  TGI: > 100 µM
[10]
  TGI: > 100 µM
[11]
  TGI: > 100 µM
[12]
  TGI: > 100 µM
[13]
  TGI: > 100 µM
[14]
  TGI: > 100 µM
[15]
  TGI: > 100 µM
[16]
  TGI: > 100 µM
[17]
  TGI: > 100 µM
[18]
  TGI: > 100 µM
[19]
  TGI: > 100 µM
[20]
  TGI: > 100 µM
[21]
  TGI: > 100 µM
[22]
  TGI: > 100 µM
[23]
  TGI: > 100 µM
[24]
  TGI: > 100 µM
[25]
  TGI: > 100 µM
[26]
  TGI: > 100 µM
[27]
  TGI: > 100 µM
[28]
  TGI: > 100 µM
[29]
  TGI: > 100 µM
[30]
  TGI: > 100 µM
[31]
  TGI: > 100 µM
[32]
  TGI: > 100 µM
[33]
  TGI: > 100 µM
[34]
  TGI: > 100 µM
[35]
  TGI: > 100 µM
[36]
  TGI: > 100 µM
[37]
  TGI: > 100 µM
[38]
  TGI: > 100 µM
[39]
  TGI: > 100 µM
[40]
  TGI: > 100 µM
[41]
  TGI: > 100 µM
[42]
  TGI: > 100 µM
[43]
  TGI: > 100 µM
[44]
  TGI: > 100 µM
[45]
  TGI: > 100 µM
[46]
  TGI: > 100 µM
[47]
  TGI: > 100 µM
[48]
  TGI: > 100 µM
[49]
  TGI: > 100 µM
[50]
  TGI: > 100 µM

## CO/C(=N\N=C\c1cccc(Cl)c1)c1ccncc1
[1]
  TGI: > 10 µM
[51]
  TGI: > 10 µM
[3]
  TGI: > 10 µM
[4]
  TGI: > 10 µM
[5]
  TGI: > 10 µM
[52]
  TGI: > 10 µM
[6]
  TGI: > 10 µM
[7]
  TGI: > 10 µM
[8]
  TGI: > 10 µM
[53]
  TGI: > 10 µM
[9]
  TGI: > 10 µM
[54]
  TGI: > 10 µM
[10]
  TGI: > 10 µM
[11]
  TGI: > 10 µM
[55]
  TGI: > 10 µM
[13]
  TGI: > 10 µM
[15]
  TGI: > 10 µM
[16]
  TGI: > 10 µM
[17]
  TGI: > 10 µM
[56]
  TGI: > 10 µM
[18]
  TGI: > 10 µM
[19]
  TGI: > 10 µM
[20]
  TGI: > 10 µM
[21]
  TGI: > 10 µM
[22]
  TGI: > 10 µM
[23]
  TGI: > 10 µM
[24]
  TGI: > 10 µM
[25]
  TGI: > 10 µM
[57]
  TGI: > 10 µM
[26]
  TGI: > 10 µM
[27]
  TGI: > 10 µM
[28]
  TGI: > 10 µM
[29]
  TGI: > 10 µM
[30]
  TGI: > 10 µM
[31]
  TGI: > 10 µM
[32]
  TGI: > 10 µM
[33]
  TGI: > 10 µM
[34]
  TGI: > 10 µM
[35]
  TGI: > 10 µM
[36]
  TGI: > 10 µM
[38]
  TGI: > 10 µM
[41]
  TGI: > 10 µM
[42]
  TGI: > 10 µM
[44]
  TGI: > 10 µM
[45]
  TGI: > 10 µM
[58]
  TGI: > 10 µM
[46]
  TGI: > 10 µM
[47]
  TGI: > 10 µM
[48]
  TGI: > 10 µM
[50]
  TGI: > 10 µM

## C/C=C\C(CC(=O)NCCc1cn(C(=O)OCc2ccccc2)c2ccccc12)CC(=O)OC (stereo not given)
[1]
  TGI: > 100 µM
[2]
  TGI: > 100 µM
[51]
  TGI: > 100 µM
[3]
  TGI: > 100 µM
[4]
  TGI: > 100 µM
[5]
  TGI: > 100 µM
[6]
  TGI: > 100 µM
[7]
  TGI: > 100 µM
[8]
  TGI: > 100 µM
[53]
  TGI: > 100 µM
[9]
  TGI: > 100 µM
[54]
  TGI: > 100 µM
[11]
  TGI: > 100 µM
[55]
  TGI: > 100 µM
[12]
  TGI: > 100 µM
[13]
  TGI: > 100 µM
[14]
  TGI: > 100 µM
[15]
  TGI: > 100 µM
[16]
  TGI: > 100 µM
[56]
  TGI: > 100 µM
[18]
  TGI: > 100 µM
[19]
  TGI: > 100 µM
[20]
  TGI: > 100 µM
[21]
  TGI: > 100 µM
[22]
  TGI: > 100 µM
[23]
  TGI: > 100 µM
[25]
  TGI: > 100 µM
[57]
  TGI: > 100 µM
[26]
  TGI: > 100 µM
[27]
  TGI: > 100 µM
[28]
  TGI: > 100 µM
[29]
  TGI: > 100 µM
[30]
  TGI: > 100 µM
[31]
  TGI: > 100 µM
[32]
  TGI: > 100 µM
[33]
  TGI: > 100 µM
[34]
  TGI: > 100 µM
[35]
  TGI: > 100 µM
[36]
  TGI: > 100 µM
[38]
  TGI: > 100 µM
[39]
  TGI: > 100 µM
[40]
  TGI: > 100 µM
[59]
  TGI: > 100 µM
[42]
  TGI: > 100 µM
[43]
  TGI: > 100 µM
[45]
  TGI: > 100 µM
[46]
  TGI: > 100 µM
[47]
  TGI: > 100 µM
[48]
  TGI: > 100 µM
[49]
  TGI: > 100 µM
[50]
  TGI: > 100 µM

## CC1(C)OCC(C(O)C2OC(C)(C)OC2C=O)O1 (stereo not given)
[1]
  TGI: > 100 µM
[2]
  TGI: > 100 µM
[51]
  TGI: > 100 µM
[3]
  TGI: > 100 µM
[52]
  TGI: > 100 µM
[6]
  TGI: > 100 µM
[7]
  TGI: > 100 µM
[8]
  TGI: > 100 µM
[9]
  TGI: > 100 µM
[54]
  TGI: > 100 µM
[11]
  TGI: > 100 µM
[12]
  TGI: > 100 µM
[13]
  TGI: > 100 µM
[14]
  TGI: > 100 µM
[15]
  TGI: > 100 µM
[16]
  TGI: > 100 µM
[17]
  TGI: > 100 µM
[56]
  TGI: > 100 µM
[18]
  TGI: > 100 µM
[19]
  TGI: > 100 µM
[20]
  TGI: > 100 µM
[21]
  TGI: > 100 µM
[22]
  TGI: > 100 µM
[23]
  TGI: > 100 µM
[24]
  TGI: > 100 µM
[25]
  TGI: > 100 µM
[27]
  TGI: > 100 µM
[28]
  TGI: > 100 µM
[29]
  TGI: > 100 µM
[30]
  TGI: > 100 µM
[31]
  TGI: > 100 µM
[32]
  TGI: > 100 µM
[33]
  TGI: > 100 µM
[35]
  TGI: > 100 µM
[36]
  TGI: > 100 µM
[38]
  TGI: > 100 µM
[39]
  TGI: > 100 µM
[40]
  TGI: > 100 µM
[59]
  TGI: > 100 µM
[41]
  TGI: > 100 µM
[42]
  TGI: > 100 µM
[43]
  TGI: > 100 µM
[44]
  TGI: > 100 µM
[45]
  TGI: > 100 µM
[46]
  TGI: > 100 µM
[47]
  TGI: > 100 µM
[48]
  TGI: > 100 µM
[49]
  TGI: > 100 µM
[50]
  TGI: > 100 µM
